Results published in ChEMBL document CHEMBL1145621, “Orally efficacious thrombin inhibitors with cyanofluorophenylacetamide as the P2 motif” (Bioorg Med Chem Lett, 2008).

How the values were obtained:
[1] = Bioavailability in rat at 30 mg/kg, po; format: ADME, organism-based; details: in vivo
[2] = Half life in dog at 1 mg/kg, iv; format: ADME, organism-based, Canis lupus familiaris; parameters: dose 1 mg/kg, route intravenous; details: in vivo
[3] = Metabolic stability in rat liver microsomes after 10 mins; format: ADME, Microsome; details: read-out: Stability
[4] = Cmax in dog at 10 mg/kg, po; format: ADME, organism-based, Canis lupus familiaris; parameters: dose 10 mg/kg, route oral; details: in vivo
[5] = Half life in rat at 3 mg/kg, iv; format: ADME, organism-based; parameters: dose 3 mg/kg, route intravenous; details: in vivo
[6] = Clearance in rat at 3 mg/kg, iv; format: ADME, organism-based; parameters: dose 3 mg/kg, route intravenous; details: in vivo
[7] = Half life in rat at 30 mg/kg, po; format: ADME, organism-based; parameters: dose 30 mg/kg, route oral; details: in vivo
[8] = Cmax in rat at 30 mg/kg, po; format: ADME, organism-based; parameters: dose 30 mg/kg, route oral; details: in vivo
[9] = Volume of distribution at steady state in dog at 1 mg/kg, iv; format: ADME, organism-based, Canis lupus familiaris; parameters: dose 1 mg/kg, route intravenous; details: in vivo, read-out: Vdss
[10] = Bioavailability in dog at 10 mg/kg, po; format: ADME, organism-based, Canis lupus familiaris; details: in vivo
[11] = Volume of distribution at steady state in rat at 3 mg/kg, iv; format: ADME, organism-based; parameters: dose 3 mg/kg, route intravenous; details: in vivo, read-out: Vdss
[12] = Half life in dog at 10 mg/kg, po; format: ADME, organism-based, Canis lupus familiaris; parameters: dose 10 mg/kg, route oral; details: in vivo
[13] = Clearance in dog at 1 mg/kg, iv; format: ADME, organism-based, Canis lupus familiaris; parameters: dose 1 mg/kg, route intravenous; details: in vivo
[14] = Half life in rat at 2 mg/kg, iv; format: ADME, organism-based; parameters: dose 2 mg/kg, route intravenous; details: in vivo
[15] = Bioavailability in rat at 10 mg/kg, po; format: ADME, organism-based; details: in vivo
[16] = Clearance in rat at 2 mg/kg, iv; format: ADME, organism-based; parameters: dose 2 mg/kg, route intravenous; details: in vivo
[17] = Metabolic stability in human liver microsomes after 10 mins; format: ADME, Microsome; details: read-out: Stability
[18] = Metabolic stability in dog liver microsomes after 10 mins; format: ADME, Canis lupus familiaris, Microsome; details: read-out: Stability
[19] = Volume of distribution at steady state in rat at 2 mg/kg, iv; format: ADME, organism-based; parameters: dose 2 mg/kg, route intravenous; details: in vivo, read-out: Vdss
[20] = Cmax in rat at 10 mg/kg, po; format: ADME, organism-based; parameters: dose 10 mg/kg, route oral; details: in vivo
[21] = Oral bioavailability in dog; format: ADME, organism-based, Canis lupus familiaris; details: in vivo
[22] = Oral bioavailability in rat; format: ADME, organism-based; details: in vivo
[23] = Half life in iv dosed dog; format: ADME, organism-based, Canis lupus familiaris; details: in vivo
[24] = Cmax in po dosed dog; format: ADME, organism-based, Canis lupus familiaris; parameters: route oral; details: in vivo

Structure (SMILES) | half-life [2] [h] | remaining at 10 min [3] [%] | Cmax [4] [nM] | Vd [9] [L/kg] | bioavailability [10] [%] | half-life [12] [h] | clearance [13] [mL/min/kg] | remaining at 10 min [18] [%] | bioavailability [22] [%] | half-life [23] [h] | further results
Cc1ccc(C(F)(F)CNc2ccc(C#N)c(CC(=O)NCCONC(=N)N)c2F)nc1 | 3.6 | > 95 | 2800 | 3.6 | 45 | 2.5 | 18 | – | – | – | bioavailability [1]: 2%; half-life [5]: 1.3 h; clearance [6]: 30 mL/min/kg; half-life [7]: 2.5 h; Cmax [8]: 250 nM; Vd [11]: 2.3 L/kg
CCCN(Cc1ccoc1)C(=O)c1cc(C)cc(OCC2(CON=C(N)N)CC2)c1 | – | – | – | – | – | – | – | – | 24 | 4.4 | –
Cc1nc(N)ccc1CNC(=O)Cc1c(C#N)ccc(NCC(F)(F)c2ccccn2)c1F | – | – | – | – | 26 | – | 34 | 100 | – | 1.1 | Cmax [24]: 800 nM

Now from value to molecule, other results behind:

half-life [2] [h] | remaining at 10 min [3] [%] | Cmax [4] [nM] | Vd [9] [L/kg] | bioavailability [10] [%] | half-life [12] [h] | clearance [13] [mL/min/kg] | remaining at 10 min [18] [%] | bioavailability [22] [%] | half-life [23] [h] | Structure (SMILES) | further results
2.9 | > 95 | 3500 | 2.9 | 49 | 2.5 | 13 | ≥ 86 | – | – | N#Cc1ccc(NCC(F)(F)c2ccccn2)c(F)c1CC(=O)NCCONC(=N)N | half-life [14]: 1 h; bioavailability [15]: 2%; clearance [16]: 67 mL/min/kg; remaining at 10 min [17]: ≥ 86%; Vd [19]: 6 L/kg; Cmax [20]: 30 nM
– | – | – | – | – | – | – | – | 6 | – | Cc1cccc(S(=O)(=O)Nc2ccc(C)n(CC(=O)NCCONC(=N)N)c2=O)c1 | bioavailability [21]: 24%
2.8 | – | 3300 | 2.9 | 65 | 3.2 | 15 | – | – | – | Cc1cccc(C(F)(F)CNc2ccc(C#N)c(CC(=O)NCCONC(=N)N)c2F)n1 | –
